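Following 48 hours of exposure in 96-well plates, responses at five concentrations were used to interpolate endpoints linearly. GI50 is the concentration that inhibits growth by half. TGI denotes the concentration required for complete inhibition of growth.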

One experiment concerns SW-620 colon. Nature of the experiment: NCI tumour cell line growth inhibition, 48 h.
In the case of `CCOC(=O)/C=C(/C(=O)OCC)n1ccc(N)nc1=O`, the TGI is over 100 µM. For the molecule `CCCSc1ccc2[nH]c(/N=C/c3ccco3)cc2c1`, the TGI is over 100 µM. In the case of `Cc1ccc2c(c1)[nH]c1cc(C(F)(F)F)ccc1[p+]2=O` (stereo not drawn), the TGI was over 100 µM.

Regarding `NCCN=C(Nc1ccccc1)Nc1ccccc1`, the TGI was over 100 µM. On to `CCC1(C)N=C(c2cnccn2)NN1c1ccc(Cl)cc1` (stereo not drawn), for which the TGI was over 100 µM. `CC1Cn2c(nc3ccccc32)NC1=O` (stereo not drawn) displayed a TGI of over 100 µM.

The molecule `C/C=C/C(O)P1(=O)N(Cc2ccccc2)[C@@H]2CCCC[C@H]2N1Cc1ccccc1` (stereo partly drawn) gave a TGI of over 25 µM.

The next experiment deals with CCRF-CEM leukemia. As to the kind of experiment: NCI tumour cell line growth inhibition, 48 h.
Molecule `CCC1(C(=O)OC(C)(C)C)OC12C(C)CCCC2C` (stereo not drawn) displayed a TGI of 39.8 µM.

Take `Cc1ccc(-c2cc(N)n(-c3nc4c(c(=O)n(C)c(=O)n4C)n3C)n2)cc1`: the TGI is over 100 µM. In the case of `CN(C)c1ccc(C2SCC(=O)N2NS(=O)(=O)c2cccc(C(=O)O)c2)cc1` (stereo not drawn), the TGI is over 100 µM. The same measure, in the same setting: under `CC1CCOc2ccc(cc2)C=Nc2ccc(cc2)CCc2ccc(cc2)N=Cc2ccc(cc2)OCC1` (stereo not drawn) stands over 100 µM. As to `COC(=O)[C@H](Cc1ccccc1)NC(=O)[C@H](Cc1ccccc1)NC(=O)[C@@H]1CCCN1C(=O)N[C@H]1C2C=CC(C2)C1C(=O)N1CCC[C@H]1C(=O)N[C@@H](C)C(=O)N[C@H](C(=O)OC)C(C)C` (stereo partly drawn), the TGI came out at 56.4 µM. On the same count and under the same terms, then `O=C1c2ccccc2-c2nc(-c3cccc([N+](=O)[O-])c3)nnc21`, with over 100 µM. In turn, `CNC(=O)Oc1ccc(-c2cn3cc(OC(=O)NC)ccc3n2)cc1` yielded a TGI of 52.9 µM. For `CC(=O)N1N=C(c2ccc3ccccc3c2O)CC1C(=O)c1ccco1` (stereo not drawn), the TGI is 24.9 µM. In the case of `N#Cc1nc(-c2cccs2)oc1N`, the TGI is over 100 µM. Same read-out and setting: then `NC(=O)NNC(=O)c1nc[nH]c1[N+](=O)[O-]`, with over 100 µM; and `O=c1c2c([N+](=O)[O-])cccc2nc2[nH]c3ccccc3n12`, with over 75 µM; and `Cc1cc(C)cc(Nc2cc(=O)[nH]c(=O)[nH]2)c1`, with over 100 µM. On the same count and under the same terms, then `O=C(O)c1ccc(S(=O)(=O)c2ccccc2[N+](=O)[O-])cc1`, with over 10 µM. As for `C[C@]12CCc3nc(Nc4ccccc4)sc3C1=CC[C@@H]1[C@@H]2CC[C@]2(C)/C(=N/NC(N)=S)CC[C@@H]12`, the GI50 is 1980 nM and the TGI is over 100 µM. The molecule `COC(=O)C1=C2SCc3cccc(c3)CSC3=C(C(=O)OC)SC(=C(S2)S1)S3` registered a TGI of over 100 µM. Take `Nc1cccc(Nc2nc3ccccc3nc2NS(=O)(=O)c2ccccc2)c1`: the TGI was found to be 46.7 µM. Take `COC(=O)C1=CC(=O)OC1(OO)c1ccccc1` (stereo not drawn): the TGI is 51.1 µM.

`CN(C)Cc1cc(C(=O)/C=C/c2ccccc2Cl)cc(CN(C)C)c1O` showed a TGI of 8.82 µM. On the same count and under the same terms, under `O=C1NC(N/N=C/C(O)C(O)C(O)CO)=N/C1=C\c1ccco1` (stereo not drawn) stands over 100 µM.

Consider `Cc1ccn2c(=O)cc(-c3ccccc3)nc2c1`, for which the TGI is over 100 µM. The molecule `Cc1cc(C2(O)C=C(C(C)(C)C)C(=O)C(C(C)(C)C)=C2)c(C)cc1C1(O)C=C(C(C)(C)C)C(=O)C(C(C)(C)C)=C1` displayed a TGI of over 100 µM. Same read-out and setting: under `CCc1ccc2oc(-c3cc(O)c(-c4nc5cc(CC)ccc5o4)cc3O)nc2c1` stands over 100 µM. On the same count and under the same terms, under `CCOC(=O)/C=C(/C(=O)OCC)n1ccc(N)nc1=O` stands 76 µM; under `CCCSc1ccc2[nH]c(/N=C/c3ccco3)cc2c1`, 80 µM; under `Cc1ccc2c(c1)[nH]c1cc(C(F)(F)F)ccc1[p+]2=O` (stereo not drawn), 50.2 µM.

`NCCN=C(Nc1ccccc1)Nc1ccccc1`: the TGI was over 100 µM. Same read-out and setting: then `CCC1(C)N=C(c2cnccn2)NN1c1ccc(Cl)cc1` (stereo not drawn), with 59.9 µM; and `CC1Cn2c(nc3ccccc32)NC1=O` (stereo not drawn), with over 100 µM. In the case of `C/C=C/C(O)P1(=O)N(Cc2ccccc2)[C@@H]2CCCC[C@H]2N1Cc1ccccc1` (stereo partly drawn), the TGI was over 25 µM.

The next experiment has as its system A498 renal. As to the kind of experiment: NCI tumour cell line growth inhibition, 48 h.
Regarding `CCC1(C(=O)OC(C)(C)C)OC12C(C)CCCC2C` (stereo not drawn), the TGI was over 100 µM. On the same count and under the same terms, then `Cc1ccc(-c2cc(N)n(-c3nc4c(c(=O)n(C)c(=O)n4C)n3C)n2)cc1`, with over 100 µM; and `O=C(Cc1ccccc1)NN1C(=O)/C(=C\c2cccc(O)c2)SC1=Nc1ccccc1`, with over 100 µM; and `CC1CCOc2ccc(cc2)C=Nc2ccc(cc2)CCc2ccc(cc2)N=Cc2ccc(cc2)OCC1` (stereo not drawn), with over 100 µM. For `COC(=O)[C@H](Cc1ccccc1)NC(=O)[C@H](Cc1ccccc1)NC(=O)[C@@H]1CCCN1C(=O)N[C@H]1C2C=CC(C2)C1C(=O)N1CCC[C@H]1C(=O)N[C@@H](C)C(=O)N[C@H](C(=O)OC)C(C)C` (stereo partly drawn), the TGI was over 100 µM. Molecule `CNC(=O)Oc1ccc(-c2cn3cc(OC(=O)NC)ccc3n2)cc1` came in with a TGI of over 100 µM. Molecule `CC(=O)N1N=C(c2ccc3ccccc3c2O)CC1C(=O)c1ccco1` (stereo not drawn) displayed a TGI of over 100 µM. Still for that read-out and setting: under `N#Cc1nc(-c2cccs2)oc1N` stands over 100 µM; under `NC(=O)NNC(=O)c1nc[nH]c1[N+](=O)[O-]`, over 100 µM. `O=c1c2c([N+](=O)[O-])cccc2nc2[nH]c3ccccc3n12` gave a TGI of over 75 µM.

Take `Cc1cc(C)cc(Nc2cc(=O)[nH]c(=O)[nH]2)c1`: the TGI was over 100 µM. With `Nn1c(CCCCCCCCc2nnc(COc3ccc(Cl)cc3)n2N)nnc1COc1ccc(Cl)cc1`, the TGI is over 100 µM. As to `O=C(O)c1ccc(S(=O)(=O)c2ccccc2[N+](=O)[O-])cc1`, the TGI was over 10 µM. For `CC1(CF)SCc2nc3ccccc3n21` (stereo not drawn), the TGI is over 100 µM. As to `C[C@]12CCc3nc(Nc4ccccc4)sc3C1=CC[C@@H]1[C@@H]2CC[C@]2(C)/C(=N/NC(N)=S)CC[C@@H]12`, the GI50 was 1390 nM and the TGI is over 100 µM.

Regarding `COC(=O)C1=C2SCc3cccc(c3)CSC3=C(C(=O)OC)SC(=C(S2)S1)S3`, the TGI is over 100 µM. In the case of `CN(C)Cc1cc(C(=O)/C=C/c2ccccc2Cl)cc(CN(C)C)c1O`, the TGI was 29.5 µM.

As to `O=C1NC(N/N=C/C(O)C(O)C(O)CO)=N/C1=C\c1ccco1` (stereo not drawn), the TGI was over 100 µM. The same measure, in the same setting: under `O=c1[nH]nc(Cc2ccc([N+](=O)[O-])cc2)n1CCO` stands over 100 µM; under `O=C(O)CC[N+]1=CCC(c2ccccc2)(c2ccccc2)O1`, over 100 µM. Same read-out and setting: under `CC1=NN(c2ccc(S(=O)(=O)O)cc2)C2(C1)SCC(=O)N2c1nc2ccccc2s1` (stereo not drawn) stands over 100 µM; under `CCc1ccc2oc(-c3cc(O)c(-c4nc5cc(CC)ccc5o4)cc3O)nc2c1`, over 100 µM. The same measure, in the same setting: then `CCCSc1ccc2[nH]c(/N=C/c3ccco3)cc2c1`, with over 100 µM; and `Cc1ccc2c(c1)[nH]c1cc(C(F)(F)F)ccc1[p+]2=O` (stereo not drawn), with 74.5 µM. `CCC1(C)N=C(c2cnccn2)NN1c1ccc(Cl)cc1` (stereo not drawn) showed a TGI of over 100 µM.

For the origin of these results see PubChem BioAssay (NCI).
